Entries after “also recorded” stand apart in the source; their conditions may differ.
Assays:
Assay type in all cases: physicochemical
[1] = Room temperature equilibrium solubility in aqueous suspensions; details: listed as Compound 1, Form B; for Total drug in solution: room temperature equilibrium, HPLC of supernatant
[2] = Hygroscopicity evaluation by DVS at 25° C.
Method: Hygroscopicity of Compound 1, Form A and Compound 1, Form B was evaluated by DVS at 25° C.

[3] = Storage for one week at controlled temperature/humidity, XRPD
Method: PLM images obtained of the particles show them to be a mixture of laths and larger aggregates typical of an uncontrolled antisolvent crystallization. A peak corresponding to 0.16 molar equivalents of acetic acid is present in the ^1H-NMR spectrum. […] It is evident from the corresponding DSC thermogram that this mass loss coincides with melting of the material (endotherm at 237.7° C.).

[4] = Gravimetric vapor sorption (GVS)
Method: Sorption isotherms were obtained using a SMS DVS Intrinsic moisture sorption analyzer, controlled by DVS Intrinsic Control software. The sample temperature was maintained at 25° C. by the instrument controls. The humidity was controlled by mixing streams of dry and wet nitrogen, with a total flow rate of 200 ml/min. The relative humidity was measured by a calibrated Rotronic probe (dynamic range of 1.0-100% RH), located near the sample. The weight change, (mass relaxation) of the sample as a function of % RH was constantly monitored by a microbalance (accuracy ±0.005 mg).
Typically, 5-30 mg of sample was placed in a tared mesh stainless steel basket under ambient conditions. The sample was loaded and unloaded at 40% RH and 25° C. (typical room conditions). A moisture sorption isotherm was performed as outlined below (2 scans per complete cycle). The standard isotherm was performed at 25° C. at 10% RH intervals over a 0-90% RH range. Typically, a double cycle (4 scans) was carried out. Data analysis was carried out within Microsoft Excel using the DVS Analysis Suite.

[5] = Competitive slurries of Form B and C in process relevant solvents
Method: Determination of the relative stabilities of Form B and Form C was undertaken to identify which material was more thermodynamically stable in process relevant solvents. As a suspected solvate was isolated from experiments where DMAC was used as a solvent, only DMSO and acetic acid were determined to be appropriate process solvents. Combinations of these solvents with relevant antisolvents were therefore selected for the competitive slurry experiments.
Compound 1 (from Example 2) was dispensed into HPLC vials. To these, 1 ml of selected solvents was subsequently added to give a suspension. Materials were slurried for 72 hours at 90° C., 50° C. or 25° C. with 500 rpm stirring. Material was subsequently isolated by centrifugation and analyzed by XRPD.

Water activity study = assay: Water activity study
Method: About 15 mg of Form A and 15 mg of Form B were added to the saturated solutions of different water activities and equilibrated at 25° C. and 50° C. for 4 days, respectively. The resulting suspensions were filtered, and the solid parts (wet cake) were investigated by XRPD to determine the polymorph.
According to XRPD results, Form B was obtained in methanol/water with water activity (a.w.) ranging from 0.1 to 0.9 at 25° C., as shown in FIGS. 20A-20B. At 50° C., Form B was obtained in methanol/water with a.w. ≥0.2, whereas a mixture of Form A and Form B was obtained in a.w. […] The water activity of the binary solvent system was calculated based on UNIFAC method (UNIQUAC Functional-group Activity Coefficients).

[6] = Variable temperature XRPD; details: heated in situ to 150° C. at 10° C./min; new form denoted Form E
Method: For variable temperature (VT-XRPD) experiments the samples were prepared and analysed in an Anton Paar chromed sample holder with silicon wafer insert. A heating/cooling rate of 10° C./min was used with a 2 min isothermal hold before the measurement started. The measurement parameters are as per the standard screening data collection method (detailed above). Measurements were taken at the following temperatures: 25° C., 150° C. and 25° C.
Compound 1 Form B was analyzed using the Empyrean XRPD at a temperature of 25° C. The sample was then heated in situ using the variable temperature stage to 150° C. at a ramp rate of 10° C./min and held isothermally for 2 minutes whereupon a second XRPD measurement was made. The sample was then cooled to 25° C. at a ramp rate of 10° C./min held isothermally for 2 minutes whereupon a third XRPD measurement was made.

Total drug in solution ([1]; 0.2% HPMC aqueous suspension): <1 µg/mL
pH ([1]; 0.2% HPMC aqueous suspension): 6.7
Total drug in solution ([1]; 0.25% SLS aqueous suspension): 7.8 µg/mL
pH ([1]; 0.25% SLS aqueous suspension): 6.0
Total drug in solution ([1]; 20% HP-BCD aqueous suspension): 74.2 µg/mL
pH ([1]; 20% HP-BCD aqueous suspension): 6.1
DVS Desorp. (%) ([2]; 0% RH, 1st Desorp.): 0.01%
DVS Sorp. (%) ([2]; 0% RH, 2nd Sorp.): 0.01%
DVS Desorp. (%) ([2]; 10% RH, 1st Desorp.): 0.95%
DVS Sorp. (%) ([2]; 10% RH, 2nd Sorp.): 0.65%
DVS Desorp. (%) ([2]; 20% RH, 1st Desorp.): 1.03%
DVS Sorp. (%) ([2]; 20% RH, 2nd Sorp.): 0.96%
DVS Desorp. (%) ([2]; 30% RH, 1st Desorp.): 1.08%
DVS Sorp. (%) ([2]; 30% RH, 2nd Sorp.): 1.00%
DVS Desorp. (%) ([2]; 40% RH, 1st Desorp.): 1.14%
DVS Sorp. (%) ([2]; 40% RH, 1st Sorp.): 1.09%
DVS Desorp. (%) ([2]; 40% RH, 2nd Desorp.): 1.06%
DVS Sorp. (%) ([2]; 40% RH, 2nd Sorp.): 1.03%
DVS Desorp. (%) ([2]; 50% RH, 1st Desorp.): 1.18%
DVS Sorp. (%) ([2]; 50% RH, 1st Sorp.): 1.10%
DVS Desorp. (%) ([2]; 50% RH, 2nd Desorp.): 1.11%
DVS Sorp. (%) ([2]; 50% RH, 2nd Sorp.): 1.06%
DVS Desorp. (%) ([2]; 60% RH, 1st Desorp.): 1.21%
DVS Sorp. (%) ([2]; 60% RH, 1st Sorp.): 1.14%
DVS Desorp. (%) ([2]; 60% RH, 2nd Desorp.): 1.10%
DVS Sorp. (%) ([2]; 60% RH, 2nd Sorp.): 1.09%
DVS Desorp. (%) ([2]; 70% RH, 1st Desorp.): 1.26%
DVS Sorp. (%) ([2]; 70% RH, 1st Sorp.): 1.18%
DVS Desorp. (%) ([2]; 70% RH, 2nd Desorp.): 1.13%
DVS Sorp. (%) ([2]; 70% RH, 2nd Sorp.): 1.12%
DVS Desorp. (%) ([2]; 80% RH, 1st Desorp.): 1.28%
DVS Sorp. (%) ([2]; 80% RH, 1st Sorp.): 1.22%
DVS Desorp. (%) ([2]; 80% RH, 2nd Desorp.): 1.18%
DVS Sorp. (%) ([2]; 80% RH, 2nd Sorp.): 1.17%
DVS Desorp. (%) ([2]; 90% RH, 1st Desorp.): 1.33%
DVS Sorp. (%) ([2]; 90% RH, 1st Sorp.): 1.29%
DVS Desorp. (%) ([2]; 90% RH, 2nd Desorp.): 1.24%
DVS Sorp. (%) ([2]; 90% RH, 2nd Sorp.): 1.22%
DVS Desorp. (%) ([2]; 95% RH, 1st Desorp.): 1.38%
DVS Sorp. (%) ([2]; 95% RH, 1st Sorp.): 1.38%
DVS Desorp. (%) ([2]; 95% RH, 2nd Desorp.): 1.30%
DVS Sorp. (%) ([2]; 95% RH, 2nd Sorp.): 1.30%
Hygroscopicity based on DVS results ([2]; listed as Compound 1, Form B): slightly hygroscopic
XRPD after DVS test ([2]; listed as Compound 1, Form B): no form change
Relative humidity at which the monohydrate is stable ([4]; readily rehydrates after water loss): > 20 % RH
critical water activity between Form A and Form B (Water activity study; 25° C., methanol/water): less than 0.1
Relative stability of forms (Water activity study; ambient condition): more stable than Form A
XRPD after heating [6]: change in Form by XRPD
Structure (SMILES): O=C(O)[C@H]1C[C@@H](N2CCc3oc(-c4ccc(OCc5ccc(Cl)cc5)cc4)nc3C2)C1 [Form B, (1s,3s)-3-(2-(4-((4-chlorobenzyl)oxy)phenyl)-6,7-dihydrooxazolo[4,5-c]pyridin-5(4H)-yl)cyclobutane-1-carboxylic acid]
XRPD after storage ([3]; 25° C./97% RH for one week): did not result in changes to material as measured by XRPD; also recorded: Unchanged by XRPD
XRPD after storage ([3]; 40° C./75% RH for one week): did not result in changes to material as measured by XRPD; also recorded: Unchanged by XRPD
XRPD post GVS analysis [4]: Unchanged by XRPD post analysis; also recorded: Sample unchanged by XRPD
Relative thermodynamic stability ([5]; acetic acid mixtures and temperatures investigated): more thermodynamically stable than Form C
Relative thermodynamic stability ([5]; majority of experimental conditions assessed): more thermodynamically stable than Form C

Reference: patent US11535632B2, “Solid forms of an S1P-receptor modulator” (ESCAPE Bio, Inc., priority 2019, dated 2022)
